In paper PMC9428891 (Frontiers in Pharmacology, 2022):

Tests used:
[1] = biological target: T1, acetylcholinesterase (AChE) (Electrophorus electricus, UniProt O42275); assay: biochemical; settings: triplicate
T1 construct: purchased Sigma Aldrich C3389-2KU
Description: AChE inhibitory activity was evaluated as described previously with few modifications using a microtiter plate reader (Molecular Device, CA, United States) ([Hasan et al., 2005]). Initially, 100 mM of sodium phosphate buffer (140 µl) pH 8, 0.25 mM DTNB (10 µl), 0.5 mM of synthetic compounds dissolved in 20 µl of ethanol and AChE (20 µl) were mixed and incubated for 15–20 min at room temperature in a microtiter plate. Finally, 10 µl of substrate ACh (0.4 mM) was added and incubated at room temperature for 4–6 min. The reaction started after the addition of ACh was hydrolyzed by AChE in the presence of DTNB; a yellow-colored 5-thio-2-nitrobenzoate anion was formed, which indicates the reaction completion and was read at a wavelength of 412 nm. All experiments were performed in triplicate and were analyzed using the SoftMax Pro6.3 program (Molecular Device, CA, United States).
Percentage inhibition was calculated by % inhibition = (O.D control-O.D test well) / O.D control)×100.
IC50 was determined at various concentrations, and EZ-Fit EK was employed to calculate the IC50 values of the test compounds (Perrella Scientific Inc., Amherst, MA, United States).
In the current study, electric eel AChE was used in the laboratory to perform an AChE inhibitory assay, but for computational analysis, we used hAChE (4EY6). Therefore, homology modeling was performed to check the similarity between the electric eel and hAChE.

[2] = tested on: isolated rabbit jejunum, K+-induced contractions; assay: Calcium antagonistic activity: relaxation of high K+ (80 mM) contracted isolated rabbit jejunum; settings: mean ± SEM, n = 3
Description: (§1) The spasmolytic activity of the inhibitors was evaluated using isolated contracting rabbit jejunum ([Rahman et al., 2019]). Rabbits used in the current study were provided by Aga Khan Medical University, Karachi, Pakistan, weighing between 1.5 and 2.0 kg. The standard operating protocol has already been defined ([Choudhary et al., 2005]).
(§2) Calcium antagonistic activity was also performed and confirmed the relaxation of 80 mM K^+ produced contraction.
Schiff bases were also evaluated at high K^+ (80 mM) contracted isolated rabbit jejunum preparations for their spasmolytic effect, which was relaxed by all compounds (Table 3). […] Schiff bases represent a class of compounds showing a wide range of bioactivities, such as antimicrobial and anticancer activities. Schiff base compounds are the products of primary amines and condensation of carbonyl compounds, which are extensively investigated owing to their wide range of biomedical applications ([Sztanke et al., 2013]). […] The antispasmodic and Ca^+2 antagonist activity of Schiff base compounds was first reported and could be linked to the azomethine bond.

[3] = Viability of human neutrophils (WST-1 cytotoxicity test); type: cell-based; settings: human neutrophils 1 × 10^7 cells/ml
Description: A cytotoxicity test was performed to determine the adverse effect of tested compounds on humans using neutrophil cells.
The absorbance is the mean of five experimental replicates.
The % viability of neutrophils was measured by the following formula: Percentage viability: […].

[4] = biological target: T1, acetylcholinesterase (AChE); assay: biochemical; set-up: V max / V maxapp: unit not given here; settings: for K m app / V maxapp: in the presence of compound; for Ki: read-out: K i ± SEM; for K m: substrate ACh
Description: Enzyme-substrate (ES) is the complex of AChE and acetylcholine, while P represents the product formed after the reaction’s completion. Dissociation constant values were calculated through Dixon plots, their secondary replots, and the Lineweaver-Burk plot ([Khan et al., 2021]).
The values of K m, K i, and V max were determined from Dixon and Lineweaver-Burk plots using no linear regression equation.
GraFit software ([Khan et al., 2021]) was utilized for plotting graphs. The values of the correlation coefficients, slopes, intercepts, and their standard errors were determined by the linear regression equation using the same program.
During kinetic studies, the reaction rate was measured and the effect of different concentrations of a substrate on the enzyme was investigated. The kinetic study of enzymes helped to determine the catalytic mechanism of enzymes. […] The rate of reaction [V] was plotted against various substrate concentrations [S] at constant enzyme concentration. Initially, the rate of reaction [V] increases as substrate concentration increases, and at higher [S], the enzyme becomes saturated, and the rate of reaction reaches V max, which is referred to as the maximum rate of reaction.
The dissociation constant K i values were found using three different methods. Primarily, from the Lineweaver-Burk plot, which is the reciprocal rate of reaction (1/V) versus reciprocal of substrate concentration (1/S), helps to determine the effect of inhibitor on the values of K m and V max. Secondly, the Dixon plot is the plot between the reciprocal of initial velocities (1/V) versus different concentrations of the compound. Finally, from secondary replot, the slopes of each line versus various concentrations of all compounds. Kinetic studies were carried out to determine the inhibition type, which helps to specify the mechanism of action of enzyme inhibition and the inhibitor binding moieties.

[5] = tested on: isolated rabbit jejunum, spontaneous contractions; assay: Spasmolytic activity on spontaneously contracting isolated rabbit jejunum; settings: mean ± SEM, n = 3
Description: as §1, §2

T1 sequence (O42275 24-633): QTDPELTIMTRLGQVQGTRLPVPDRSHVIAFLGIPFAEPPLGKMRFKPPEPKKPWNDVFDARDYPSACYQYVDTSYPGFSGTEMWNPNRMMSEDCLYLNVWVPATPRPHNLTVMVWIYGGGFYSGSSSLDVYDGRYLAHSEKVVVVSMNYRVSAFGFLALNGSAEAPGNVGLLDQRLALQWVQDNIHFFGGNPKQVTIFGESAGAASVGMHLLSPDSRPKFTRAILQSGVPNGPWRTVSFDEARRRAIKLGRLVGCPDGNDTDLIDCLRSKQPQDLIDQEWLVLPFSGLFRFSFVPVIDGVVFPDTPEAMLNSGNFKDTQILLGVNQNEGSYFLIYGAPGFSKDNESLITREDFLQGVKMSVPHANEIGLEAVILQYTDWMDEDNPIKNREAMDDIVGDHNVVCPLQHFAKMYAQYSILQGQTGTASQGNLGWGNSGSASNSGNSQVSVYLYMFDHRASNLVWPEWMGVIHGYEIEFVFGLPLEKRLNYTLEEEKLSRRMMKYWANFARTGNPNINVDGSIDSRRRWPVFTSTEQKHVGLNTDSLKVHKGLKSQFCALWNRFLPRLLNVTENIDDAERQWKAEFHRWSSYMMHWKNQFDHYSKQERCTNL

SMILES | IC50 [1] | Effective Dose (ED50), spasmolytic effect, High K+ [2] | viability at 30 min, 491.014 µM ([3]; neutrophils isolated from human whole blood, Conc. 491.014 µM) | Type of inhibition [4] | V max [4] | K m app [4] | V maxapp [4] | Ki [4] | K m [4] | Effective Dose (ED50), spasmolytic effect, Spontaneous [5] | viability at 30 min, 501.907 µM ([3]; neutrophils isolated from human whole blood, Conc. 501.907 µM) | viability at 30 min, 539.913 µM ([3]; neutrophils isolated from human whole blood, Conc. 539.913 µM) | viability at 30 min, 456.058 µM ([3]; neutrophils isolated from human whole blood, Conc. 456.058 µM) | viability at 30 min, 696.005 µM ([3]; Conc. 696.005 µM)
CCSc1nc2ccccc2n1CC(=O)N/N=C/c1ccc(Cl)cc1Cl [Compound 10] | 51.23 ± 0.2 µM | 1,620.347 ± 0.04 µM | 90.1 ± 2.3% | Non-competitive | 5.0 | 120 µM | 2.1 | 17 ± 1.3 µM | 120 µM | – | – | – | – | –
CCSc1nc2ccccc2n1CC(=O)N/N=C\c1ccc(OC)cc1OC [Compound 11] | 37.64 ± 0.2 µM | 727.765 ± 0.09 µM | – | Non-competitive | 5.0 | 120 µM | 2.6 | 14 ± 1.6 µM | 120 µM | 326.239 ± 0.01 µM | 98 ± 1% | – | – | –
CCSc1nc2ccccc2n1CC(=O)N/N=C/c1cccc(O)c1O [Compound 13] | 50.58 ± 0.3 µM | 836.865 ± 0.05 µM | – | Non-competitive | 5.0 | 120 µM | 2.3 | 19 ± 1.7 µM | 120 µM | 458.926 ± 0.01 µM | – | 77.22 ± 0.5% | – | –
CCSc1nc2ccccc2n1CC(=O)N/N=C/c1c2ccccc2cc2ccccc12 [Compound 14] | 51.23 ± 0.2 µM | 980.526 ± 0.05 µM | – | Non-competitive | – | 120 µM | – | – | 120 µM | 592.876 ± 0.12 µM | – | – | 66.6 ± 4% | –
COc1ccc2c3c1O[C@H]1C[C@@H](O)C=C[C@@]31CCN(C)C2 [Galanthamine, reference compound] | – | – | – | – | – | – | – | – | – | – | – | – | – | 96 ± 2%
